Measurements as given in patent US9309304B2, “Glycation cross-link breakers to increase resistance to enzymatic degradation” (NEW YORK SOCIETY FOR THE RUPTURED AND CRIPPLED MAINTAINING …, priority 2012, dated 2016).

Tests used:
[1] = Relative fluorescence of solubilized fibers; assay type: physicochemical, rat; conditions: 7 days of 0.2 M ribose exposure, about 460 nm
Procedure: Ribose incorporation into fibers over time was assessed by fluorescence of solubilized fibers following 0 to 10 days of incubation (Verzijl et al. 2002). Fibers were incubated in 0.2 M ribose solution (solution was exchanged with fresh ribose solution at day 3) and sample fibers were removed daily, rinsed in PBS, and then stored at 4° C. until the end of the time course. Fibers were weighed, then dissolved at 60° C. in a 1:20 dilution of papain (Carica Papaya, Roche Diagnostics, Indianapolis, Ind.) in buffer per the commercial protocol at a concentration of 1 mg tendon per 50 uL of papain solution. Relative fluorescence was measured at about 460 nm using a spectrophotometer (340 ATTC, Tecan US, Chapel Hill, N.C.) as reported by Verzijl et al. 2002. Maximum fluorescence was estimated from measurements of fibers incubated in ribose for 5 weeks.

collagenase = assay: CEMKATS test of Alagebrium-treated 7-day glycated tendon fibers (Example 6); assay type: biochemical; conditions: 15 mM Alagebrium 12 hours
Procedure: 7-day glycated (cross-linked) tendon fibers are immersed for 12 hours in a solution of 15 mM Alagebrium dissolved in PBS at a temperature ranging from about 4° C. to 37° C. The fibers are removed from the solution, rinsed in PBS, and then soaked in fresh PBS for 15 minutes. After this soak, the fibers are removed from the PBS bath, rinsed with fresh PBS. The visible PBS is blotted off and the fibers are interfaced with the CEMKATS system. Mechanical strain is applied as described in Example 1. The fiber reaches a peak stress during loading and subsequently relaxes to an equilibrium stress. Once the specimen reaches equilibrium, collagenase would be added. The resulting change in load would be observed and recorded (which would be converted post-hoc to stress).

[2] = Randomized control trial of treated grafts for ACL reconstruction; assay type: in vivo; conditions: for relative risk of negative outcomes (Lachman test, pivot-shift test, Drawer test): 6 and 12 months post-surgery
Procedure: For an ACL reconstruction, a bone-patellar tendon-bone graft (other eligible grafts include hamstring tendon) is harvested from a cadaveric donor per standard collection procedure. Before freezing, the graft tissue is immersed in a sterile filtered isotonic buffered saline solution containing Alagebrium at a concentration of 0.1 mM for 8 hours at a temperature of ranging from about 4° C. to 37° C. Following incubation with the cross-link breaking reagent, the specimen is rinsed with sterile isotonic buffered saline and then is immersed in a rinsing fluid, such as sterile isotonic buffered saline, with a volume of at least 10 times greater than the estimated volume of the specimen. The specimen remains immersed in the rinse fluid for 30 minutes. The rinsing and immersion step is repeated twice more with fresh rinse solution each time. The tissue specimen is then removed from the fluid, excess liquid is allowed to drain, any visible fluid is gently blotted off with sterile gauze, and is then frozen as per standard procedure. […] For an ACL reconstruction, a bone-patellar tendon-bone graft (other eligible grafts include hamstring tendon) is harvested from the patient as per standard collecting procedure. Before use, the graft tissue is wrapped in sterile gauze and is soaked in a sterile filtered isotonic buffered saline solution containing Alagebrium at a concentration of 100 mM for 15 minutes at a temperature ranging from about 4° C. to 37° C. Following incubation with the cross-link breaking reagent, the specimen is unwrapped, rinsed with sterile istonic buffered saline and then is wrapped again with sterile gauze and immersed in a rinsing fluid, such as sterile isotonic buffered saline, with a volume of at least 10 times greater than the estimated volume of the specimen. The specimen remains immersed in the rinse fluid for 15 minutes. The tissue specimen is then removed from the fluid, unwrapped, excess liquid is allowed to drain, any visible fluid is gently blotted off with sterile gauze, and then the graft is utilized as per standard procedure.

[3] = AGE cross-links in treated graft tissue by FTIR spectrum
Procedure: For an ACL reconstruction, a bone-patellar tendon-bone graft (other eligible grafts include hamstring tendon) is harvested from a cadaveric donor per standard collection procedure. Before freezing, the graft tissue is immersed in a sterile filtered isotonic buffered saline solution containing Alagebrium at a concentration of 0.1 mM for 8 hours at a temperature of ranging from about 4° C. to 37° C. Following incubation with the cross-link breaking reagent, the specimen is rinsed with sterile isotonic buffered saline and then is immersed in a rinsing fluid, such as sterile isotonic buffered saline, with a volume of at least 10 times greater than the estimated volume of the specimen. The specimen remains immersed in the rinse fluid for 30 minutes. The rinsing and immersion step is repeated twice more with fresh rinse solution each time. The tissue specimen is then removed from the fluid, excess liquid is allowed to drain, any visible fluid is gently blotted off with sterile gauze, and is then frozen as per standard procedure. For an ACL reconstruction, a bone-patellar tendon-bone graft (other eligible grafts include hamstring tendon) is harvested from the patient as per standard collecting procedure. Before use, the graft tissue is wrapped in sterile gauze and is soaked in a sterile filtered isotonic buffered saline solution containing Alagebrium at a concentration of 100 mM for 15 minutes at a temperature ranging from about 4° C. to 37° C. Following incubation with the cross-link breaking reagent, the specimen is unwrapped, rinsed with sterile istonic buffered saline and then is wrapped again with sterile gauze and immersed in a rinsing fluid, such as sterile isotonic buffered saline, with a volume of at least 10 times greater than the estimated volume of the specimen. The specimen remains immersed in the rinse fluid for 15 minutes. The tissue specimen is then removed from the fluid, unwrapped, excess liquid is allowed to drain, any visible fluid is gently blotted off with sterile gauze, and then the graft is utilized as per standard procedure. […]

[4] = cadaveric bone-patellar tendon-bone graft, 0.1 mM for 8 hours

| SMILES | relative fluorescence of solubilized rat tail tendon [1] | EMK function values versus cross-linked control specimens (collagenase; higher strain (above about 3%)) | EMK function values versus cross-linked control specimens (collagenase; low strain (less than about 1.25%)) | surgical outcome of ACL reconstruction ([2]; operating room treated autograft, 100 mM for 15 minutes) | surgical outcome of ACL reconstruction ([2]; tissue bank treated graft, 0.1 mM for 8 hours) | relative risk of negative outcomes (Lachman test, pivot-shift test, Drawer test) ([2]; versus placebo-treated grafts, operating room treated autograft) | relative risk of negative outcomes (Lachman test, pivot-shift test, Drawer test) ([2]; versus untreated grafts, tissue bank treated graft) | amounts of AGE cross-links (AGE associated absorption peak, FTIR) ([3]; autologous bone-patellar tendon-bone graft, 100 mM for 15 minutes) | amounts of AGE cross-links (AGE associated absorption peak, FTIR) [3, 4] | stiffness of treated specimen [3, 4] |
| --- | --- | --- | --- | --- | --- | --- | --- | --- | --- | --- |
| O=C[C@H](O)[C@H](O)[C@H](O)CO [ribose, D-Ribose] | significantly increased | – | – | – | – | – | – | – | – | – |
| Cc1sc[n+](CC(=O)c2ccccc2)c1C.[Cl-] [Alagebrium, 3-phenacyl-4,5-dimethylthiazolium chloride] | – | higher value for the control specimens than the Alagebrium-treated specimens | lower for controls than Alagebrium-treated specimens | improved surgical outcome | improved surgical outcome | lower relative risk | lower relative risk | significantly decreased amounts of AGE cross-links | significantly decreased amounts of AGE cross-links | less stiff after treatment |
